Measured values: patent publication US8034574B2, “Screening method for prokinetic agent” (Astellas Pharma Inc., priority 2006, dated 2011)

Key:
[1] = system: dog digestive tract movement; assay: Dog digestive tract movement by strain gauge force transducer method
guinea pig ileum = assay: Isolated guinea pig gut constriction (Magnus, ileum)
Description: Guinea pigs (Hartley strain, male, weighing 300-400 g), under ether anesthesia, were exsanguinated to death by cutting the carotid artery. The ileum was extirpated, about 15-cm portions at both ends were removed, a section 1.5 cm long was cut out from the remaining portion, and incisions were made longitudinally parallelly in the gut to prepare a tabular specimen. This specimen was sandwiched with serrefine at both ends, and suspended with a thread in a Magnus chamber containing 10 ml of a 37° C. Krebs solution (118 mM NaCl, 4.7 mM KCl, 2.5 mM CaCl2, 1.2 mM MgSO4, 1.2 mM KH2PO4, 11 mM D-glucose, 20 mM NaHCO3) aerated with 95% O2-5% CO2 mixed gas. A 1-g load was applied to the specimen, buffers were exchanged at 15-minute intervals, and the specimen was allowed to stand for about 60 minutes to stabilize its tension. Changes in the tension in response to agonist stimulation were measured isometrically, and recorded on a recorder. Acetylcholine, 10^−5 M, was administered to induce contraction of the ileum specimen; after the contraction maximized, the bath was washed three times to purge out the acetylcholine. This operation was repeated at 10-minute intervals, and after the induced contraction stabilized two consecutive times, each test substance was administered. By comparing the contractile forces produced by acetylcholine and the test substance, the effect of the test substance was evaluated. One specimen was investigated only at one concentration of the test substance. […] From the results above, it was shown that the TRPA1 activator induced gut contraction.
The serotonin receptor antagonists used were pizotifen maleate (10 μM), a 5-HT1,2 receptor antagonist, ketanserin tartrate (0.1 μM), a 5-HT2 receptor antagonist, ramosetron hydrochloride (0.3 μM), a 5-HT3 receptor antagonist, and GR113808 (0.3 μM), a 5-HT4 receptor antagonist.
The inhibitory actions of various serotonin receptor antagonists on contraction upon stimulation with acrolein (300 μM) were investigated in the same manner. […] From the results above, it was shown that serotonin was released upon stimulation with acrolein to induce contraction via serotonin receptors such as 5-HT1 receptor and 5-HT3 receptor.

`C=CCN=C=S` [allyl isothiocyanate] was tested, and the “induction of GMC” value ([1]; oral) was “induced GMC”, the “time after administration to induction of colon GMC (Giant migrating contraction)” value ([1]; oral, 1, 10 mg/kg) was ≤ 10 min and the stomach movement ([1]; oral, just after administration) was “accentuated stomach movement just after administration”. For the same compound, the EC50 (guinea pig ileum; Cavia porcellus, read-out: EC50(μM) †) was 129 µM and the Action (guinea pig ileum; Magnus (guinea pig ileum)) was “Contraction”.
